Source: the NIST ThermoML archive (doi:10.1021/je400184t)

Assay: excess molar enthalpy (molar enthalpy of mixing); xn = mol fraction of the nth substance listed
Conditions: 298.15 K, 101 kPa, Liquid, Calvet calorimetry

CN(CCO)CCO [N-methyldiethanolamine] + c1ccncc1
Conditions | excess molar enthalpy [kcal/mol]
x2 = 0.5606 | -0.0203
x2 = 0.5629 | -0.0203
x2 = 0.5652 | -0.0201
x2 = 0.5675 | -0.0201
x2 = 0.5698 | -0.0198
x2 = 0.5721 | -0.0198
x2 = 0.5744 | -0.0191
x2 = 0.5767 | -0.0196
x2 = 0.579 | -0.0194
x2 = 0.5813 | -0.0194
x2 = 0.5836 | -0.0191
x2 = 0.5859 | -0.0191
x2 = 0.5882 | -0.0189
x2 = 0.5905 | -0.0189
x2 = 0.5928 | -0.0186
x2 = 0.595 | -0.0186
x2 = 0.5974 | -0.0184
x2 = 0.5996 | -0.0182
x2 = 0.6019 | -0.0182
x2 = 0.6042 | -0.0179
x2 = 0.6065 | -0.0179
x2 = 0.6088 | -0.0177
x2 = 0.6111 | -0.0177
x2 = 0.6134 | -0.0174
x2 = 0.6157 | -0.0174
x2 = 0.618 | -0.0172
x2 = 0.6203 | -0.0172
x2 = 0.6226 | -0.017
x2 = 0.6249 | -0.0167
x2 = 0.6272 | -0.0167
x2 = 0.6295 | -0.0165
x2 = 0.6318 | -0.0165
x2 = 0.6341 | -0.0163
x2 = 0.6363 | -0.0163
x2 = 0.6386 | -0.016
x2 = 0.6409 | -0.016
x2 = 0.6432 | -0.0158
x2 = 0.6455 | -0.0155
x2 = 0.6478 | -0.0155
x2 = 0.6501 | -0.0153
x2 = 0.6524 | -0.0153
x2 = 0.6547 | -0.0151
x2 = 0.657 | -0.0148
x2 = 0.6593 | -0.0148
x2 = 0.6616 | -0.0146
x2 = 0.6639 | -0.0146
x2 = 0.6662 | -0.0143
x2 = 0.6685 | -0.0143
x2 = 0.6707 | -0.0141
x2 = 0.6731 | -0.0139
x2 = 0.6753 | -0.0139
x2 = 0.6776 | -0.0136
x2 = 0.6799 | -0.0136
x2 = 0.6822 | -0.0134
x2 = 0.6845 | -0.0131
x2 = 0.6868 | -0.0131
x2 = 0.6891 | -0.0129
x2 = 0.6914 | -0.0127
x2 = 0.6937 | -0.0127
x2 = 0.696 | -0.0124
x2 = 0.6983 | -0.0124
x2 = 0.7006 | -0.0122
x2 = 0.7029 | -0.012
x2 = 0.7052 | -0.012
x2 = 0.7075 | -0.0117
x2 = 0.7097 | -0.0115
x2 = 0.712 | -0.0115
x2 = 0.7143 | -0.0112
x2 = 0.7166 | -0.0112
x2 = 0.7189 | -0.011
x2 = 0.7212 | -0.0108
x2 = 0.7235 | -0.0108
x2 = 0.7258 | -0.0105
x2 = 0.7281 | -0.0103
x2 = 0.7304 | -0.0103
x2 = 0.7327 | -0.01
x2 = 0.735 | -0.0098
x2 = 0.7373 | -0.0098
x2 = 0.7396 | -0.00956
x2 = 0.7419 | -0.00956
x2 = 0.7442 | -0.00932
x2 = 0.7464 | -0.00908
x2 = 0.7488 | -0.00908
x2 = 0.751 | -0.00884
x2 = 0.7533 | -0.0086
x2 = 0.7556 | -0.0086
x2 = 0.7579 | -0.00837
x2 = 0.7602 | -0.00813
x2 = 0.7625 | -0.00813
x2 = 0.7648 | -0.00789
x2 = 0.7671 | -0.00765
x2 = 0.7694 | -0.00765
x2 = 0.7717 | -0.00741
x2 = 0.774 | -0.00717
x2 = 0.7763 | -0.00717
x2 = 0.7786 | -0.00693
x2 = 0.7809 | -0.00669
x2 = 0.7827 | -0.00669
x2 = 0.7869 | -0.00645
x2 = 0.7911 | -0.00598
x2 = 0.7953 | -0.00574
x2 = 0.7996 | -0.0055
x2 = 0.8039 | -0.00526
x2 = 0.8083 | -0.00502
x2 = 0.8127 | -0.00454
x2 = 0.8172 | -0.0043
x2 = 0.8217 | -0.00406
x2 = 0.8263 | -0.00359
x2 = 0.8309 | -0.00335
x2 = 0.8356 | -0.00311
x2 = 0.8404 | -0.00287
x2 = 0.8451 | -0.00239
x2 = 0.85 | -0.00215
x2 = 0.8549 | -0.00191
x2 = 0.8598 | -0.00167
x2 = 0.8648 | -0.0012
x2 = 0.8699 | -0.000956
x2 = 0.875 | -0.000717
x2 = 0.8802 | -0.000478
x2 = 0.8855 | -0.000239
x2 = 0.8908 | 0
x2 = 0.8962 | 0.000239
x2 = 0.9016 | 0.000478
x2 = 0.9071 | 0.000717
x2 = 0.9127 | 0.000956
x2 = 0.9183 | 0.0012
x2 = 0.9241 | 0.00143
x2 = 0.9298 | 0.00143
x2 = 0.9357 | 0.00167
x2 = 0.9416 | 0.00167
x2 = 0.9477 | 0.00167
x2 = 0.9538 | 0.00191
x2 = 0.9599 | 0.00167
x2 = 0.9662 | 0.00167
x2 = 0.9725 | 0.00167
x2 = 0.9789 | 0.00143
x2 = 0.9854 | 0.0012
x2 = 0.992 | 0.000717
x2 = 0.9987 | 0.000239
